SMILES strings stand for the structures. Active and inactive are the calls of the source.

As usually defined, the IC50 is the concentration that inhibits the measured activity by half. For orientation: Ki means the equilibrium dissociation constant of an inhibitor or competing ligand from its target. The AC50 is the concentration at which the activity in the assay is half-maximal.

The target in one experiment is T1, Caspase-3 (Homo sapiens, UniProt P42574).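 Further: Dose-response selectivity test against caspase-3 for candidate inhibitors of sentrin-specific proteases (SENPs).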
T1 sequence (P42574 whole entry): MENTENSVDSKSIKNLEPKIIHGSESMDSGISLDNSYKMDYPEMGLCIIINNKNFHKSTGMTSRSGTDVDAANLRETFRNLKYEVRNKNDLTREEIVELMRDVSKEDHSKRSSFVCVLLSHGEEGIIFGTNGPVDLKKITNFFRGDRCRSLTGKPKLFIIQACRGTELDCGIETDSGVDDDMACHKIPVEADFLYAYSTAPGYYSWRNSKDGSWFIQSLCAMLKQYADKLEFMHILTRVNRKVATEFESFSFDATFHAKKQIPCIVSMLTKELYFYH
Format: functional.

For experiment [1], the target named is Protein kinase C theta type (Homo sapiens, UniProt Q04759). The experiment in a line: Navigating the Kinome. Panel member name: PRKCQ. Format: functional.
For experiment [2], the target named is 5'-AMP-activated protein kinase catalytic subunit alpha-1 (Homo sapiens, UniProt Q13131). Format: functional.
The target of experiment [3] is ALK tyrosine kinase receptor (Homo sapiens, UniProt Q9UM73). Format: functional.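 Further: ALK tested as one member of a kinase panel screen.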
Experiment [4] has as its target Death-associated protein kinase 3 (Homo sapiens, UniProt O43293). Format: functional.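 Further: measured as one member of a kinome-wide profiling panel.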
Experiment [5] concerns the target Mitogen-activated protein kinase 8 (Homo sapiens, UniProt P45983). Format: functional.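 Further: value comes from one member of a kinome-wide kinase profiling panel.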
Experiment [6] concerns the target Serine/threonine-protein kinase pim-1 (Homo sapiens, UniProt P11309). Format: functional.
The target in experiment [7] is Tyrosine-protein kinase BTK (Homo sapiens, UniProt Q06187). Format: functional.
The target of experiment [8] is Fibroblast growth factor receptor 1 (Homo sapiens, UniProt P11362). Format: functional.
In experiment [9] the target is Tyrosine-protein kinase JAK3 (Homo sapiens, UniProt P52333). Format: functional.
The target in experiment [10] is High affinity nerve growth factor receptor (Homo sapiens, UniProt P04629). Format: functional.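 Further: NTRK1 tested as one member of a kinome-wide profiling panel.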
For experiment [11], the target named is Mitogen-activated protein kinase kinase kinase kinase 2 (Homo sapiens, UniProt Q12851). Format: functional.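 Further: measured as one member of a kinome-wide kinase panel, with MAP4K2 as the panel entry.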
Experiment [12] deals with Vascular endothelial growth factor receptor 2 (Homo sapiens, UniProt P35968). Format: functional.
In experiment [13] the target is Insulin-like growth factor 1 receptor (Homo sapiens, UniProt P08069). Put plainly: Navigating the Kinome. Panel member name: IGF1R. Format: functional.
Experiment [14] has as its target Rho-associated protein kinase 1 (Homo sapiens, UniProt Q13464). Format: functional.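 Further: measured within a broad kinome-wide panel profiling many kinases.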
For experiment [15], the target named is Vascular endothelial growth factor receptor 1 (Homo sapiens, UniProt P17948). Format: functional.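 Further: measured within a kinome-wide profiling panel, FLT1 as the panel member.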
Experiment [16] concerns the target Glycogen synthase kinase-3 beta (Homo sapiens, UniProt P49841). Format: functional.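 Further: value comes from a broad kinome profiling panel, with GSK3B as the panel member.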
The target in experiment [17] is BDNF/NT-3 growth factors receptor (Homo sapiens, UniProt Q16620). Format: functional.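 Further: NTRK2 measured as one member of a broad kinome-wide kinase profiling panel.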
The target in experiment [18] is Dual specificity protein kinase CLK4 (Homo sapiens, UniProt Q9HAZ1). Format: functional.
In experiment [19] the target is Mitogen-activated protein kinase kinase kinase kinase 4 (Homo sapiens, UniProt O95819). Format: functional.
The target of experiment [20] is Dual specificity mitogen-activated protein kinase kinase 2 (Homo sapiens, UniProt P36507). The experiment in a line: Navigating the Kinome. Panel member name: MAP2K2. Format: functional.
The target of experiment [21] is Dual specificity tyrosine-phosphorylation-regulated kinase 1A (Homo sapiens, UniProt Q13627). Format: functional.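 Further: measured against DYRK1A as one member of a broad kinome profiling panel.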
Experiment [22] concerns the target Inhibitor of nuclear factor kappa-B kinase subunit epsilon (Homo sapiens, UniProt Q14164). Put plainly: Navigating the Kinome. Panel member name: IKBKE. Format: functional.
Experiment [23] deals with T2, Histone-lysine N-methyltransferase NSD2 (Homo sapiens, UniProt O96028).
T2 sequence (O96028 whole entry): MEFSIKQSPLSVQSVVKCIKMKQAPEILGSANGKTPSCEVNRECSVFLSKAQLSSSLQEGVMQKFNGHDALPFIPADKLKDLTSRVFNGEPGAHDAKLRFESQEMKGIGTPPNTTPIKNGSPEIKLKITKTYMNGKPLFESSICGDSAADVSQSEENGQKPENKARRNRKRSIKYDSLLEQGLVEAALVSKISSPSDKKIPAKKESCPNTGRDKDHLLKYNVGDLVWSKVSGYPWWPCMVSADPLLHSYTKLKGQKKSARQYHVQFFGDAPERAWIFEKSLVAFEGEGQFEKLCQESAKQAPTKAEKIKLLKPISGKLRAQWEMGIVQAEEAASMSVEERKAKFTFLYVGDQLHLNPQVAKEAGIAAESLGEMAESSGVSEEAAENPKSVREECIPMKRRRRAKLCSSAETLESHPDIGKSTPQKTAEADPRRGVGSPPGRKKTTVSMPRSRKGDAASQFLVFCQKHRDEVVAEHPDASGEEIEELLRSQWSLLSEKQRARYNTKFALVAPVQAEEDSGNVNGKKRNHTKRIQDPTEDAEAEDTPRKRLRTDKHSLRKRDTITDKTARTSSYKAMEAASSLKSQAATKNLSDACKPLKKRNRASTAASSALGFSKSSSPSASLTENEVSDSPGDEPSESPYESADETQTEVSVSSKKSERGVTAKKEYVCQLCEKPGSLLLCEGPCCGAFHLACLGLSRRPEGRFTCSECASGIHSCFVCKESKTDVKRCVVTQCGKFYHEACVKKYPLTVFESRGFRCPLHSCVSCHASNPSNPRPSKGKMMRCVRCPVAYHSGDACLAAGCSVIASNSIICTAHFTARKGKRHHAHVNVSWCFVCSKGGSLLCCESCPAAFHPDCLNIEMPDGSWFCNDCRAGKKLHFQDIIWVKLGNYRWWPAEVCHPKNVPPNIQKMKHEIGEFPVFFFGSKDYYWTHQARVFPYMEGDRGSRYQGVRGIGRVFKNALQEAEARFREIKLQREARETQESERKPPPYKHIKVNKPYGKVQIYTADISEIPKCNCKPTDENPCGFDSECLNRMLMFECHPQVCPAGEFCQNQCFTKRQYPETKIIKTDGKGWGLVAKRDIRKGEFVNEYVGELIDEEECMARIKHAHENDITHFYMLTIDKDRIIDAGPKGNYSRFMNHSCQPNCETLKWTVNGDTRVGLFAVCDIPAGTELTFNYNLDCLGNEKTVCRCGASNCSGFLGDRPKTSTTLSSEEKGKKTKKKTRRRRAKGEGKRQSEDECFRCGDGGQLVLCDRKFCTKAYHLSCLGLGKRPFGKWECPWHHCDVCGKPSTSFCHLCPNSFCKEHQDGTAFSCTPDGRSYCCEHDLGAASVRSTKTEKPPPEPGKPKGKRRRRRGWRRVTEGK
Format: biochemical.

Chain of Death-associated protein kinase 3 (O43293 whole entry): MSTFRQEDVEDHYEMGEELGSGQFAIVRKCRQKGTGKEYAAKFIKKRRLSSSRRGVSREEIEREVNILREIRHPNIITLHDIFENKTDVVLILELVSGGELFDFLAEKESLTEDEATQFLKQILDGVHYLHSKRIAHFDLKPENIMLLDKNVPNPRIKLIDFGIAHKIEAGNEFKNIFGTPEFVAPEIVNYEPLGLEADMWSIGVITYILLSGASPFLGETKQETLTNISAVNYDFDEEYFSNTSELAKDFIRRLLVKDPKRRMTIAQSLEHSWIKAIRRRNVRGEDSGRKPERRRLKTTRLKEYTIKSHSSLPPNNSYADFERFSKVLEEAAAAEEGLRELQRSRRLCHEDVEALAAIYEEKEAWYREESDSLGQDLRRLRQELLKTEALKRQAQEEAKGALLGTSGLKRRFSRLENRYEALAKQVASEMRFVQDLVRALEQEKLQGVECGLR
Chain of ALK tyrosine kinase receptor (Q9UM73 whole entry): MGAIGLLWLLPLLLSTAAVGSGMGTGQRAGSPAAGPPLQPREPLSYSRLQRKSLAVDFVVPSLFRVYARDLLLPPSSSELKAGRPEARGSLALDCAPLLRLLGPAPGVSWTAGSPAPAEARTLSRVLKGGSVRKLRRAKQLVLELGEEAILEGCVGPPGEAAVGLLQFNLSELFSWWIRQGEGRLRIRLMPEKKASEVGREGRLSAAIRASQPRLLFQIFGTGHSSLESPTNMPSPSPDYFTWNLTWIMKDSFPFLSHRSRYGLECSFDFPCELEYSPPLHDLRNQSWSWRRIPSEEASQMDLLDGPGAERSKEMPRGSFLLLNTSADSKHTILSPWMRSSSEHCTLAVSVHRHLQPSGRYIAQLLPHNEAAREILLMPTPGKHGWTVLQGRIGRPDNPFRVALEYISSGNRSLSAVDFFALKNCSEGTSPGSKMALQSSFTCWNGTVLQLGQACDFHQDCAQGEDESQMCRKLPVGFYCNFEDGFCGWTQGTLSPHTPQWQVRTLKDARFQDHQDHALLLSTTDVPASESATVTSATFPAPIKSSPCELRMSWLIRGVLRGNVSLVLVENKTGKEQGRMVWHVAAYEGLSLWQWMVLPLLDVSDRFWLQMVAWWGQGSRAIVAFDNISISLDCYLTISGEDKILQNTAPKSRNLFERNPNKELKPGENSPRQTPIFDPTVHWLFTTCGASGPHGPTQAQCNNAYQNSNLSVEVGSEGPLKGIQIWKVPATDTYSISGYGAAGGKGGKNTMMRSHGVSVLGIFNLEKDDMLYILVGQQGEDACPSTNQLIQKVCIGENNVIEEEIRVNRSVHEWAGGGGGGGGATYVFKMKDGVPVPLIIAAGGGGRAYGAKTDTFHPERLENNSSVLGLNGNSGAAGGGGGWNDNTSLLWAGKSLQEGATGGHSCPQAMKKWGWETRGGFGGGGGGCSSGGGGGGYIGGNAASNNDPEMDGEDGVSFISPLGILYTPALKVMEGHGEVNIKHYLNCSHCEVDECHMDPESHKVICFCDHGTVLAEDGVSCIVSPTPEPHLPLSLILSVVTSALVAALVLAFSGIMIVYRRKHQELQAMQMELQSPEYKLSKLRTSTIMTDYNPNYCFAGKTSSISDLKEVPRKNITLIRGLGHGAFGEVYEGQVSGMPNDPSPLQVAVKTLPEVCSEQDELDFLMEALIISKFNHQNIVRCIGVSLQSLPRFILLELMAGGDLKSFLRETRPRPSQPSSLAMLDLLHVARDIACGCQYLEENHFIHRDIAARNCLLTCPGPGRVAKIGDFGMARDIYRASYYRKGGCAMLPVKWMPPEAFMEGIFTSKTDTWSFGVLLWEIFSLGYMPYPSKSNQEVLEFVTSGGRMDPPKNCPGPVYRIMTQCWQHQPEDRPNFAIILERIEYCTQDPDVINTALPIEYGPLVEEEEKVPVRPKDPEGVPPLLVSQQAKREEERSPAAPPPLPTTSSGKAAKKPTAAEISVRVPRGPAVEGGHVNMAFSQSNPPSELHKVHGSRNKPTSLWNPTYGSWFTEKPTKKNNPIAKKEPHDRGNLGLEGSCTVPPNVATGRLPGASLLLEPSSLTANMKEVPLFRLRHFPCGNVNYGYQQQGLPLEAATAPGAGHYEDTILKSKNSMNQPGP
Chain of BDNF/NT-3 growth factors receptor (Q16620 whole entry): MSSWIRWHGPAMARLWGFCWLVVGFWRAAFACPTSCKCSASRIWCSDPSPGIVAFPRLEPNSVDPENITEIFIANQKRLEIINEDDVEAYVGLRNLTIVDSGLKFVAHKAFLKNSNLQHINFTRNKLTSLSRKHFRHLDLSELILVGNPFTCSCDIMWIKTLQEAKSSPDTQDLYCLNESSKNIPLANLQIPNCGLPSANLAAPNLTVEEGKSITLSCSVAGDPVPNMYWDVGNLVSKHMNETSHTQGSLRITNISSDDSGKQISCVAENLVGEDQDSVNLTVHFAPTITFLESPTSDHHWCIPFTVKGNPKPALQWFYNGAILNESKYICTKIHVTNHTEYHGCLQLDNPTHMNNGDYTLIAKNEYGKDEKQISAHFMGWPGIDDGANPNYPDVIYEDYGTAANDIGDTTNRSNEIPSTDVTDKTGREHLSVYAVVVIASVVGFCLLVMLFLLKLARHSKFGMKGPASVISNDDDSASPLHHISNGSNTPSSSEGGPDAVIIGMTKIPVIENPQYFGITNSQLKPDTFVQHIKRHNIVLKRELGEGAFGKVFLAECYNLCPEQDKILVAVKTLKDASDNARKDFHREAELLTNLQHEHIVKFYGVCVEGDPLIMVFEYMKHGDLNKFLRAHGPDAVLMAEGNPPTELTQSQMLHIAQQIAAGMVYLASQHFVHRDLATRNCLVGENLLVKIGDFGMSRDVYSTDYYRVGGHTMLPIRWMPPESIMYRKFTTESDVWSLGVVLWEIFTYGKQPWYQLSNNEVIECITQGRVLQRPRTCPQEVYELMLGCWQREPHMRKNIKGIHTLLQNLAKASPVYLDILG
Chain of Protein kinase C theta type (Q04759 whole entry): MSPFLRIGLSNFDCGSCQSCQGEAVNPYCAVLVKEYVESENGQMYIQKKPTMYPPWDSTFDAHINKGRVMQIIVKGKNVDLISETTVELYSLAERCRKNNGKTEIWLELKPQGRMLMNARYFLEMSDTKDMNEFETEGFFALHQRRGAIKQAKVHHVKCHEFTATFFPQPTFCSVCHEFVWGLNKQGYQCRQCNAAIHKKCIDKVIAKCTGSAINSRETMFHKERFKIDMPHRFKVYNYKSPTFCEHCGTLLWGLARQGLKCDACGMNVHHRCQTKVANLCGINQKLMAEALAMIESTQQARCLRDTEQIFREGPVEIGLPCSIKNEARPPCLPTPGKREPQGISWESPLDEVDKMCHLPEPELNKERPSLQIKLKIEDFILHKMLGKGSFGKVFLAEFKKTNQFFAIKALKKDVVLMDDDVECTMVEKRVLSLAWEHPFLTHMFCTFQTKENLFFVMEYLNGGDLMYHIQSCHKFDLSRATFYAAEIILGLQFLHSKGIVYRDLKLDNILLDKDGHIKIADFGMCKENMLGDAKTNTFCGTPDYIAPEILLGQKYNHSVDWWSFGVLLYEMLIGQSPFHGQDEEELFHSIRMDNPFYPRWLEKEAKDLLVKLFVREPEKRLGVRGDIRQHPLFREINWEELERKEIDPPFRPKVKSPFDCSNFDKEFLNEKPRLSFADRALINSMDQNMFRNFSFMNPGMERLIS
Chain of Inhibitor of nuclear factor kappa-B kinase subunit epsilon (Q14164 whole entry): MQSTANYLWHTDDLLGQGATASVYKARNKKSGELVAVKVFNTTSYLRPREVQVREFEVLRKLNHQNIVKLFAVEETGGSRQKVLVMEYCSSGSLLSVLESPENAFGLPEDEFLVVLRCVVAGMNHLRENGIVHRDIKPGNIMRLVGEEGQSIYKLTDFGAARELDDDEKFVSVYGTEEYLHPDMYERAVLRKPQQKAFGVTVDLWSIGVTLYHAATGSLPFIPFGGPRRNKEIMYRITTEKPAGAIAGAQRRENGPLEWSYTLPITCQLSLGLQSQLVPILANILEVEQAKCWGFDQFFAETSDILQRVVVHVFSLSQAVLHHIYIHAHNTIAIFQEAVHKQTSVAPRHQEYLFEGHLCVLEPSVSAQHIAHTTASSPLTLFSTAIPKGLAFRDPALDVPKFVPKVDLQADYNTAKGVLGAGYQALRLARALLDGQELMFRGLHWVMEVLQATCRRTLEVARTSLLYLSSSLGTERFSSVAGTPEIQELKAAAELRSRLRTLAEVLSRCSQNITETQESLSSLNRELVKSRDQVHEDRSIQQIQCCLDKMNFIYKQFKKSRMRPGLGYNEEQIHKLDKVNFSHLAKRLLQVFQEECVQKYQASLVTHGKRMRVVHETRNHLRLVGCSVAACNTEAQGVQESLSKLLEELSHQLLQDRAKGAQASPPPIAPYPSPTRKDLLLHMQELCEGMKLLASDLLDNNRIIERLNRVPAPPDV
Chain of 5'-AMP-activated protein kinase catalytic subunit alpha-1 (Q13131 whole entry): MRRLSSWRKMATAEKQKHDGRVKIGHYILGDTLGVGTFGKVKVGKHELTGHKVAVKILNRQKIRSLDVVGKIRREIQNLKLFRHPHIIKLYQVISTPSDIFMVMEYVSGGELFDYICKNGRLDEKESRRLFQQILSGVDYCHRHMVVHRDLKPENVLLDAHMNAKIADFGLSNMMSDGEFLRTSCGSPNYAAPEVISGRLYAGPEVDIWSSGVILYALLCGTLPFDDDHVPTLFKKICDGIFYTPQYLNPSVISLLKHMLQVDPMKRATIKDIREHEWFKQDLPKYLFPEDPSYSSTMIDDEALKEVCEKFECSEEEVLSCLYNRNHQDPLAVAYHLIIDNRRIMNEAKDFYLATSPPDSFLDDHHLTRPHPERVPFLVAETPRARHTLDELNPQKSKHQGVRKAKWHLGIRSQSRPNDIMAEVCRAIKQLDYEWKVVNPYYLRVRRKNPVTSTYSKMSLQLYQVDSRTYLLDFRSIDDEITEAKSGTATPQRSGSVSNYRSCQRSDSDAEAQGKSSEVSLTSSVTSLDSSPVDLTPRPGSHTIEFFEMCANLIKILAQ

Turning to `O=C(N/N=C/c1c(O)ccc2ccccc12)c1[nH]ncc1Br`, the IC50 on Caspase-3 was 27.7 µM (active).

Turning to `O=C(Nc1cc(-c2c[nH]c3ncccc23)cc(Cl)n1)c1ccccc1`, the Ki in experiment [1] is > 2.51 µM (inactive); in experiment [2], > 3.16 µM (inactive); in [3], > 6.31 µM (inactive); in [4] it was > 3.98 µM (inactive); in experiment [5], > 5.01 µM (inactive); in experiment [6], > 3.98 µM (inactive). Further, the Ki in experiment [7] is > 6.31 µM (inactive); in [8], > 3.98 µM (inactive); in experiment [9] it was > 5.01 µM (inactive); in experiment [10], > 3.16 µM (inactive); in [11] it was > 2.51 µM (inactive); in [12] it was > 2.51 µM (inactive). In addition, the Ki was > 2.51 µM (inactive) in experiment [13]; > 0.316 µM (inactive) in experiment [14]; > 3.98 µM (inactive) in [15]; > 3.98 µM (inactive) in experiment [16]; > 3.98 µM (inactive) in experiment [17]; 0.0251 µM (active) in [18]. Also, the Ki in [19] is 2.51 µM (active); in experiment [20], > 3.98 µM (inactive); in experiment [21], 0.251 µM (active); in experiment [22], > 3.16 µM (inactive).

Consider `Nc1c(-c2ccc(NC(=O)Nc3cccc(C(F)(F)F)c3)cc2)cnc2c(-c3ccc4c(c3)OCO4)cnn12`, for which the Ki in experiment [1] is > 2.51 µM (inactive); in experiment [2] it was > 3.16 µM (inactive); in [3], > 6.31 µM (inactive); in [4] it was > 5.01 µM (inactive); in experiment [5], > 5.01 µM (inactive); in experiment [6], > 6.31 µM (inactive). Besides, the Ki in experiment [7] is 0.316 µM (active); in experiment [8], > 3.98 µM (inactive); in experiment [9] it was > 5.01 µM (inactive); in experiment [10], 0.1 µM (active); in [11], > 2.51 µM (inactive); in [12], 0.0126 µM (active). Also, the Ki in experiment [13] is > 2.51 µM (inactive); in experiment [14], > 3.98 µM (inactive); in [15], 0.251 µM (active); in [16] it was > 3.98 µM (inactive); in experiment [17] it was 0.0126 µM (active); in [18], > 2.51 µM (inactive). The Ki in experiment [19] is > 5.01 µM (inactive); in [20], > 3.98 µM (inactive); in experiment [21], > 2 µM (inactive); in experiment [22], > 3.16 µM (inactive).

Turning to `O=C(Cc1ccccc1Cl)NC1(O)C(=O)c2ccccc2C1=O`, the concentration at half-maximal activity (AC50) in experiment [23] is 8.16 µM (active).

`Nc1nnc2c(n1)CCCC2`: the IC50 on Caspase-3 was 14.3 µM (active). The AC50 in experiment [23] is 16.5 µM (active).

The record behind these values is ChEMBL document CHEMBL1201862, “PubChem BioAssay data set” (2004).
